# Entries after “also recorded” stand apart in the source; their conditions may differ.
# Assays:
# MRL/MpJ-Fas^lpr/J mice [1] = experiment: Proteinuria in MRL/lpr mouse model of systemic lupus erythematosus / lupus nephritis; format: in vivo
# Description: (§1) Mice. […] Water was given ad libitum.
# (§2) Proteinuria measurements. Proteinuria measurements were performed by putting gentle pressure on the bladder for spot urine analysis on a clean surface with a semi-quantitative dipstick (Combistix, Bayer). Mice were determined to have proteinuria when urinary protein output was 100 mg/dL or more. Urine was collected by placing the animals in metabolic cages and performing two-24 hr collections. Total protein was measured using a Bradford assay. (MM Bradford, Analytical Biochemistry 72: 248-254, 1976).
# MRL/MpJ-Fas^lpr/J mice [2] = experiment: Splenomegaly (spleen mass and histology) in MRL/lpr mice; format: in vivo
# Source text: as §1
# MRL/MpJ-Fas^lpr/J mice [3] = conditions: 300 ng per day 1,25(OH)2D3 in diet, earlier thesis work (Kim 2009); cited from earlier work
# [4] = Growth, body weight and clinical signs in treated MRL/lpr mice; format: in vivo
# Source text: as §1
# MRL/MpJ-Fas^lpr/J mice [5] = experiment: Kidney and heart histology in MRL/lpr mice; format: in vivo
# Description: as §1
# Histology. Half of a kidney was preserved in cold zinc formalin fixative, embedded in paraffin, and sectioned 4 μm thick. Hematoxylin and eosin (H&E) and Masson-Goldner's trichrome were used to study histological differences between kidney samples. Von Kossa staining was performed on whole heart sections (processed as described above) to determine heart calcification. Sectioning and staining was performed by the University of Wisconsin—Madison McArdle Histology Laboratory. Micrographs in the figures were taken by an Olympus BH-2 microscope and Nikon Coolpix 990 digital camera.
# [6] = Serum calcium in treated MRL/lpr mice
# Description: Mice. All mice used in this study were female MRL/MpJ-Fas^lpr/J mice either purchased directly or originally purchased from The Jackson Laboratory and bred in house. All mice involved in each study were age matched to the week of birth. All animal handling was performed according to protocol A1205 approved by the University of Wisconsin—Madison Institutional Animal Care and Use Committee. From weaning, female mice were placed on purified diet containing 0.47% calcium without 2MD until treatment initiation. The purified powder diet was prepared in agar form and administered 3 times a week. 2MD was administered through diet based on 5 g daily diet consumption per mouse. Water was given ad libitum. Blood was taken via retro-orbital bleeding method under isoflurane anesthetic. Serum was isolated from blood samples, frozen and subsequently analyzed with a benchtop clinical chemistry analyzer (Pentra 400, Horiba ABX).
# NOD mice = experiment: NOD Mouse Model of Type I Diabetic Nephropathy; format: in vivo; conditions: 2MD in the diet
# Description: as §2
# Disease Induction. NOD mice (breeder pairs) were obtained from JAX laboratories (Bar Harbor, Me.). Weanling mice were placed on chow diet (5K52 Lab Diets) or purified diet (Suda et al., Purified Rodent Diet-Diet 11) and allowed to spontaneously develop diabetes (two consecutive measurements of plasma glucose >[…]). Water and diet were provided ad libitum.
# Animal Husbandry. Animals were housed in autoclaved, plastic shoe-box style cages with corn cob bedding in groups of 2-4 animals/cage. Once mice were confirmed diabetic, the cages were changed daily. The animal rooms were maintained at a temperature of 68 to 72° F. and a relative humidity of 25 to 75%. […]
# Treatment Groups. […] Once animals were determined to be diabetic, animals were assigned to treatment groups (6-12/group) so that each group would have the same average plasma glucose level at enrollment. […]
# [7] = system: ⅚ths Nephrectomy Rat Model; experiment: ⅚ths Nephrectomy Rat Model (uremic rat); format: in vivo, Sprague-Dawley rats; conditions: uremic rats
# Source text: ⅚ths Nephrectomy Rat Model. Disease Induction. Weanling, male Sprague-Dawley rats were obtained from Harlan (Madison, Wis.). Following a 10-13 day acclimation period, the animals had two-thirds of one kidney removed. After a week, the other entire kidney was removed. The animals were then switched from a chow diet to a purified rodent diet (Suda et al., Purified Rodent Diet-Diet 11) containing 0.6% Ca and 0.9% phosphorus and fat soluble vitamins A, D, E and K. Water and diet were provided ad libitum.
# Animal Husbandry. Animals were housed in suspended, plastic shoe-box style cages with corn cob bedding (prior to surgery) or in stainless steel, wire-bottom cages (approximately one week after surgery). The animal rooms were maintained at a temperature of 68 to 72° F. and a relative humidity of 25 to 75%. The holding rooms were set to provide 12 hours of light per day.
# Treatment Groups. Approximately four weeks after the second surgery, animals were assigned to treatment groups (14-15 animals/group) so that each group had the same average PTH level.
# Dose Preparation (Vehicle Formulation). The negative control material was prepared by volumetrically measuring ethanol (5%) and Neobee oil, mixing and then placing in storage at 2 to 8° C.
# Dose Preparation (2MD Formulation). 2MD formulations (DP001, Sigma Aldrich Fine Chemicals, Madison, Wis.) were prepared by first determining the concentration of an ethanol stock solution using UV spectrophotometry (extinction coefficient=42,000; max=252 nm). The solutions were then volumetrically added to Neobee oil so that there was no more than 5% ethanol in the final solution. If necessary, additional ethanol was added to bring the final ethanol amount to 5%. The solution was mixed and stored at 2 to 8° C.
# Dose Administration Method. Both vehicle and 2MD were administered orally to the back of the tongue at 0.5 ml/kg body weight once daily for 8 weeks.
# Serum Parathyroid Hormone (PTH) Levels. By “serum PTH levels” we mean the amount of PTH released by the parathyroid gland. PTH is the most important regulator of the body's calcium and phosphorus levels, and is controlled by the level of calcium in the blood. Low blood calcium levels cause increased PTH to be released, while high blood calcium levels inhibit PTH release. Normal values are 10-55 picograms per milliliter (pg/mL). Four weeks after surgery and 4 and 8 weeks after treatment initiation, blood was collected from the tail artery and the concentration of bioactive serum PTH was measured using the rat BioActive Intact PTH ELISA Kit from Immutopics, Inc. (San Clemente, Calif.).
# Serum Calcium Analysis. Four weeks following surgery and 4 and 8 weeks after treatment started, blood was collected from the tail artery of each experimental animal. The blood was allowed to coagulate at room temperature and then centrifuged at 3000×g for 15 minutes. The serum was transferred to a polypropylene tube and stored frozen at −20° C. The level of calcium was determined by diluting the serum into 0.1% lanthum chloride and measuring the absorbance on an atomic absorption spectrophotometer (Perkin Elmer Model 3110, Shelton, Conn.).
# Phosphorus Assay. Four weeks after surgery and 8 weeks after treatment started, blood was collected from the tail artery of each experimental animal. The blood was allowed to coagulate at room temperature and then centrifuged at 3000×g for 15 minutes. The serum was transferred to a polypropylene tube and stored frozen at −20° C. The level of phosphorus was determined using a clinical analyzer (Pentra 400, Horiba ABX Diagnostics—France; UV method using phosphomolybdate).
# Creatinine Assay. Measuring serum creatinine levels is a useful and inexpensive method of evaluating renal dysfunction. Creatinine is a non-protein waste product of […] metabolism by skeletal muscle tissue. Creatinine production is continuous and is proportional to muscle mass. […]
# [8] = daily oral 2MD for 8 weeks vs vehicle
# [9] = daily oral 2MD vs vehicle, six weeks after treatment initiation
compound,measurement,setting,value
"C=C1/C(=C\C=C2/CCC[C@]3(C)[C@@H]([C@H](C)CCCC(C)(C)O)CC[C@@H]23)C[C@@H](O)C[C@@H]1O [1,25(OH)2D3, 1α,25-dihydroxyvitamin D3, reference compound]",prevention of proteinuria,"MRL/MpJ-Fas^lpr/J mice [1]; 300 ng 1,25(OH)2D3 compared with 5 ng 2MD",equally effective
same,spleen mass reduction,"MRL/MpJ-Fas^lpr/J mice [2]; 150 ng per day 1,25(OH)2D3",comparable to that achieved with 5 ng 2MD treatment
same,"spleen histology, compared with 5 ng 2MD","MRL/MpJ-Fas^lpr/J mice [2]; 300 ng 1,25(OH)2D3",better retention of normal spleen histology
same,spleen mass normalized to body weight,"MRL/MpJ-Fas^lpr/J mice [2]; 300 ng 1,25(OH)2D3",statistically significant reduction
same,"spleen mass, compared with 5 ng 2MD","MRL/MpJ-Fas^lpr/J mice [2]; 300 ng 1,25(OH)2D3",greater reduction in spleen mass
same,proteinuria,MRL/MpJ-Fas^lpr/J mice [3],completely prevents proteinuria
"C=C1[C@H](O)CC(=C/C=C2\CCC[C@@]3(C)C2CCC3[C@@H](C)CCCC(C)(C)O)C[C@H]1O (stereo partly drawn) [2MD, 2-methylene-19-nor-(20S)-1α,25-(OH)2D3]","hypercalcemia and associated effects including weight loss, compared with 150 ng 1,25(OH)2D3",[4]; 1 ng 2MD,significantly less
same,clinical symptoms of hypercalcemia,[4]; 5 ng 2MD,symptoms of hypercalcemia including unkempt fur and nervousness
same,growth / weight loss,[4]; 5 ng 2MD,adversely affected; also recorded: Weight loss is most severe
same,growth,[4]; 0.5 and 1 ng 2MD,slight impact on growth; also recorded: very mild
same,lethargy or morbidity,"[4]; any 2MD dose group (0.5, 1, 5 ng)",no lethargy or morbidity was observed
same,reduction in proteinuria incidence,"MRL/MpJ-Fas^lpr/J mice [1]; 1 ng 2MD per mouse per day in diet, MRL/lpr mice",> 60%
same,mean time of onset of proteinuria,"MRL/MpJ-Fas^lpr/J mice [1]; 1 ng 2MD, MRL/lpr mice",delayed mean time of onset of proteinuria
same,proteinuria (terminal incidence),"MRL/MpJ-Fas^lpr/J mice [1]; 5 ng 2MD/mouse/day in diet, MRL/lpr mice, treatment week 10 to 19",completely preventing proteinuria; also recorded: completely prevented; also recorded: sufficient to prevent proteinuria
same,perivascular infiltration,MRL/MpJ-Fas^lpr/J mice [5]; 5 ng 2MD vs control,slight decrease; also recorded: noticeably decreased
same,tubulointerstitial infiltration of leukocytes,MRL/MpJ-Fas^lpr/J mice [5]; 5 ng 2MD vs control,noticeable decrease; also recorded: substantially less
same,"glomerular damage (sclerosis, fibrosis, basement membrane thickening, mesangial proliferation)","MRL/MpJ-Fas^lpr/J mice [5]; 5 ng 2MD vs control, kidney histology",prevented
same,interstitial fibrosis (fibrotic staining),"MRL/MpJ-Fas^lpr/J mice [5]; 5 ng 2MD vs control, trichrome stain",significantly less; also recorded: the extent and frequency was much less
same,calcification in kidneys and hearts,MRL/MpJ-Fas^lpr/J mice [5]; 2MD treated MRL/lpr mice,lack of evidence of calcification; also recorded: absence of calcification artifacts
same,spleen histology (white pulp structure),MRL/MpJ-Fas^lpr/J mice [2]; 5 ng 2MD,helps retain the sheath-like structure; also recorded: retains some of the sheath structure
same,splenomegaly / spleen weight (also normalized to body weight),"MRL/MpJ-Fas^lpr/J mice [2]; 5 ng 2MD vs 0 ng control, p<0.05",significantly reduced splenomegaly; also recorded: significantly decreased
same,serum calcium levels,"[6]; 1 ng 2MD, MRL/lpr mice, throughout the study",within the physiologically normal range
same,serum calcium levels,"[6]; 5 ng 2MD per mouse per day, MRL/lpr mice",without dramatically increasing
same,"serum calcium, highest measured point","[6]; 5 ng 2MD, MRL/lpr mice",12.4 mg/dL
same,serum calcium at study termination,"[6]; 5 ng 2MD, MRL/lpr mice, week 19",10.9 mg/dL
same,serum calcium levels,"[6]; 2MD treatment (0.5, 1, 5 ng), week 10 to 19, MRL/lpr mice",mildly elevated
same,overall urine volume output,NOD mice,reduced; also recorded: marked improvement
same,total urinary protein excretion,NOD mice,reduced; also recorded: marked improvement
same,all markers of kidney failure,[7]; 2MD treatment,improved
same,serum creatinine,[7]; [8],lower levels
same,serum phosphorus,[7]; [8],lower levels
same,urinary protein excretion,[7]; [9],lower levels
same,urinary volume,[7]; [9],lower levels
same,bone mineral density (total body BMD),[7]; daily oral 2MD,improved bone mineral densities; also recorded: increased bone mineral density
same,overall survival,[7]; daily oral 2MD,increased overall survival
same,serum PTH levels,[7]; daily oral 2MD,decreased PTH levels; also recorded: lower PTH levels
same,total serum calcium,[7]; dose levels of 2MD giving the positive effects,do not significantly raise serum calcium
